How the values were obtained:
[1] = Procedure: The experiment was carried out using standard glass diffusion cells which consist of a donor compartment with a 7.5 ml capacity, and a receptor compartment with a 22 ml capacity. A circular piece of epidermis was placed in each diffusion cell (permeation area=2.27 cm^2) in a horizontal position between a lower capped receptor compartment and an upper capped donor compartment. The receptor compartment has both a venting tube (uncapped) and a sampling port (capped). The stratum corneum side of the epidermis faced the donor compartment. An O-ring was positioned between the epidermis and the donor compartment, and a clamp held the compartments together. The receptor solution, 22 ml of 0.001 M phosphoric acid solution, pH 3.2, was added to each receptor compartment. The cells were placed in a temperature controlled water bath shaker at 35° C. and allowed to come to temperature before the donor solution was added.
At each time interval, the receptor solution was removed from the test cell and replaced with an equal volume of fresh receptor solution previously equilibrated at 35° C. […] From the drug concentration and the volume of the receptor solutions, the area of permeation and the time interval, the flux of the drug through the epidermis was calculated as follows: (drug concentration×volume of receptor)/(area×time)=flux (μg/cm^2·hr).
Transdermal fluxes were obtained using human epidermis at 35° C. in standard diffusion cells using the procedure set forth in Example 1. FIG. 6 graphically depicts the results.
Transdermal fluxes were obtained using human epidermis at 35° C. in standard diffusion cells using the procedure set forth in Example 1.

[2] = administered orally as fluoxetine hydrochloride (Prozac), 10 mg or 20 mg daily doses, cited from earlier work
skin = skin irritation on transdermal administration (inventors' finding); assay type: in vivo
Description: According to this preferred embodiment, a pharmaceutically acceptable salt of fluoxetine is coadministered with an anti-irritant, preferably a corticosteroid such as hydrocortisone.
Other salts which provide the necessary flux and irritation levels can be determined in accordance with the principles of the teachings of this invention.

Molecule | effect of methyl laurate by itself on fluoxetine flux ([1]; 10% fluoxetine base in oil/petrolatum with 0-10% methyl laurate, FIG. 6) | increase of fluoxetine flux by addition of GML ([1]; 10% fluoxetine base in oil/petrolatum with 2.5-10% GML, FIG. 5) | effect of the combination of methyl laurate and GML on fluoxetine flux ([1]; 10% fluoxetine base in oil/petrolatum with 5% methyl laurate and 0-10% GML, FIG. 7, compared with GML or methyl laurate individually) | elimination half-life, averaging ([2]; average) | elimination half-life [2] | skin irritation when administered transdermally (skin; in vivo) | skin irritation when administered transdermally (skin; transdermal administration, base or salt form as labelled)
CNCCC(Oc1ccc(C(F)(F)F)cc1)c1ccccc1 (racemic) [fluoxetine, (±)-N-methyl-γ-[4-(trifluoromethyl)-phenoxy] benzenepropanamine] | did not significantly increase | two to five fold | synergistic effect | 48 to 72 h | 24 to 220 h | moderately to severely irritating | 
fluoxetine acetate |  |  |  |  |  |  | reduced irritation levels

From patent US7011844B2 (Alza Corporation, priority 1996, dated 2006)
